According to patent US20090048340A1, “GROWTH HORMONE SECRETION REGULATOR” (AJINOMOTO CO., INC., priority 2006, published 2009):

Legend:
growth hormone secretion [1] = assay: Growth hormone secretion regulating function, oral administration of amino acid solutions; assay type: in vivo, shiba-goat (capra hircus); settings: sodium aspartate monohydrate 5 mmol/kg, valine 5 mmol/kg, blood 6 h before to 12 h after administration, n=3
Procedure: Two- to four-year-old mature castrated male and female shiba-goats (25 to 35 kg), purchased from the farm of Tokyo University, were domesticated for about one week. Sodium aspartate monohydrate (5 mmol/kg, 861 mg/kg), valine (5 mmol/kg, 586 mg/kg), and a mixture thereof, prepared in the same way as Example 1, were administered orally to the shiba-goats, and blood was collected continuously during a period between 6 hours before and 12 hours after administration every 15 minutes via a cannula placed in the jugular vein, followed by investigation of changes in growth hormone secretion (n=3). The concentrations of the growth hormone in blood were measured by immunoassay in which europium was used.
The growth hormone and antibody used in the immunoassay were purchased from National institute of Diabetes and Digestive and Kidney Diseases. The other procedures were performed based on a reference (Sugino T et al., Biochemical and biophysical research communications 295: 255-60). The minimum measured concentration was 2 ng/ml, while the maximum measured concentration was 126 ng/ml. The intra-assay variation and inter-assay variation were 11.3% and 8.6%, respectively.

growth hormone secretion [2] = assay: Growth hormone secretion regulating function, intravenous administration of amino acid solutions; assay type: in vivo, shiba-goat (capra hircus); settings: aspartic acid 0.75 mmol/kg, valine 1.0 mmol/kg, blood 6 h before to 12 h after administration, n=3
Procedure: The growth hormone secretion regulating function of amino acids to be used in the present invention was evaluated by investigating changes in growth hormone secretion caused by intravenous administration of amino acid solutions. The details are as follows.
Special grade aspartic acid (Ajinomoto Co., Inc.) and valine (Ajinomoto Co., Inc.) were used as L-type amino acid samples. The amino acids were dissolved in purified water or an aqueous solution of 5% carboxymethylcellulose and administered as aqueous solutions (pH 7.0 to 8.0).
Two- to four-year-old mature castrated male and female shiba-goats (25 to 35 kg), purchased from the farm of Tokyo University, were domesticated for about one week. Aspartic acid (0.75 mmol/kg), valine (1.0 mmol/kg), and a mixture thereof, prepared in the same way as above, were administered intravenously via a cannula placed in the jugular vein, and blood was collected continuously during a period between 6 hours before and 12 hours after administration every 15 minutes via the cannula placed in the jugular vein, followed by investigation of changes in growth hormone secretion (n=3). The concentrations of the growth hormone in blood were measured by radioimmunoassay based on a double antibody method.
The growth hormone and antibody used in the radioimmunoassay were purchased from National institute of Diabetes and Digestive and Kidney Diseases. The other procedures were performed based on a reference (Hashizume T et al., Animal Science Technology 62: 343-350). The minimum measured concentration was 1 ng/ml, while the maximum measured concentration was 512 ng/ml. The intra-assay variation and inter-assay variation were 11.6% and 12.3%, respectively.

N[C@@H](CC(=O)O)C(=O)O [aspartic acid]
no changes: amount of the growth hormone secreted in a pulse-like manner (growth hormone secretion [1]) | secretion patterns of the growth hormone secreted in a pulse-like manner at a certain frequency (growth hormone secretion [1]) | amount of the growth hormone secreted in a pulse-like manner (growth hormone secretion [2]) | secretion patterns of the growth hormone secreted in a pulse-like manner at a certain frequency (growth hormone secretion [2])

CC(C)[C@H](N)C(=O)O [valine]
no changes: amount of the growth hormone secreted in a pulse-like manner (growth hormone secretion [1]) | secretion patterns of the growth hormone secreted in a pulse-like manner at a certain frequency (growth hormone secretion [1]) | amount of the growth hormone secreted in a pulse-like manner (growth hormone secretion [2]) | secretion patterns of the growth hormone secreted in a pulse-like manner at a certain frequency (growth hormone secretion [2])
